Here are results for 24 compounds from patent publication US20090004185A1, “AMINO-SUBSTITUTED QUINAZOLINE DERIVATIVES AS INHIBITORS OF BETA-CATENIN/TCF-4 PATHWAY AND CANCER TREATMENT AGENTS” (WYETH, priority 2007, published 2009).

The structures appear in SMILES notation.

One assay concerns β-catenin/Tcf-4. Put plainly: cells. The class given is cell-based. The conditions noted are these: Homo sapiens, SW480, 24 h, Tcf 33.13 cells derived from SW480; 24 hours of incubation with compound; ratio Firefly/Renilla luciferase. From the text:
Background cell line: SW480 colorectal carcinoma DNA constructs:
1) Tcf-4-Luc: Tcf-4 binding sites driving Firefly Luciferase in the pGL3 vector—to measure the activity of β-catenin/Tcf-4;
(§1) 2) SV40-Luc: SV40 binding site driving Firefly Luciferase in the pGL3 vector—as a control for non-specific inhibitors; and
(§2) 3) SV40-R-Luc: SV40 binding site driving Renilla Luciferase in the pGL3 vector—as an internal control for cell number and toxicity.
This screen uses 3 cell lines derived from SW480 and selected to contain the above luciferase reporters integrated into their chromosomes as follows: […]
(§3) Cells: Tcf22C11 and SV5A8 were grown in the presence of 500 μg/ml G418 and Tcf 33.13 was grown in the presence of 500 μg/ml G418+125 μg/ml Zeocin to maintain the integrated reporters. The cells were trypsinized and plated at 1×10^4 cells/well in opaque 96 well plates.
The compounds were diluted as follows: The compounds were stored frozen in dimethyl sulfoxide (DMSO) at […]. Compounds were initially titrated in DMSO to make a 1000×DMSO stock solution. Compounds were then diluted 1:25 into media/DMSO (DMEM+10% FBS+9% DMSO). Using the Biomek Multimek, the diluted compounds were mixed well and immediately added to the plated cells in a 1:40 dilution. The final concentration of DMSO in the assay plates was 0.316% DMSO.
(§4) Assay Readout: The luciferase signal was detected using a luciferase detection kit from Promega. Until December 2003, Promega's Dual-Luciferase® Reporter (DLR™) Assay System was used to detect luciferase activity. Briefly, after 24 hours of incubation with compound, culture media was removed by aspiration and 20 ul of passive lysis buffer (Promega) per well was added. The plates were shaken for 15 min. Firefly substrate was then added and the resulting luminescence was immediately read on a CCD camera imaging device or a luminometer. After quantifying the firefly luminescence, the reaction was quenched, and the Renilla luciferase reaction was initiated simultaneously by adding Stop & Glo® Reagent to the same sample. Renilla luciferase was then quantified using the CCD camera or luminometer.
Promega's Dual-Glo™ Luciferase Assay System can be used for luciferase detection. […] Briefly, after 24 hours of incubation with compound, culture media was removed by aspiration and 75 ul of fresh medium was added. Add 75 ul of Dual-Glo Luciferase Reagent (Promega) to each well and mix by shaking for 10 minutes on a plate shaker. Then, measure the firefly luminescence on a CCD camera imaging device or a luminometer. After quantifying the firefly luminescence, add 75 ul of Dual-Glo Stop & Glo Reagent (Promega) to each well and mix for 10 minutes. Renilla luciferase was then quantified using the CCD camera or luminometer.
(§5) This assay was meant to confirm primary leads and determine IC50s. Compounds were tested at titrated dilutions. The raw data for this assay was reported in protocol 2463-B. Protocol 2463-C contains the IC50 calculations based on the raw data. The data calculations were done as follows:
(§6) The data was expressed as % of control for both Firefly and Renilla Luciferase. The ratio of FF/Renilla (F/R) was then calculated and averaged between duplicate plates. The data was then plotted using LSW Data Analysis in Microsoft Excel. IC50s were determined by plotting the data in the LSW Data Analysis program using model 33. The IC50s (nM) for all three cell lines were reported.
On to `CNc1nc(NCc2ccc(NC(=O)c3cc(F)ccc3C)cc2)c2ccccc2n1` [Example 1, 5-fluoro-2-methyl-N-[4-({[2-(methylamino)quinazolin-4-yl]amino}methyl)phenyl]benzamide], for which the IC50 is greater than 6020 nM.

Consider `CNc1nc(NCc2ccc(NC(=O)COCc3ccccc3)cc2)c2ccccc2n1` [Example 2, 2-(benzyloxy)-N-[4-({[2-(methylamino)quinazolin-4-yl]amino}methyl)phenyl]acetamide], for which the IC50 was greater than 2920 nM.

Still in this assay, the particulars now being: Homo sapiens, Tcf22C11, 24 h, Tcf 22C11 cells derived from SW480; 24 hours of incubation with compound; ratio Firefly/Renilla luciferase.
As to `CNc1nc(NCc2ccc(NC(=O)c3cc(F)ccc3C)cc2)c2ccccc2n1` [Example 1, 5-fluoro-2-methyl-N-[4-({[2-(methylamino)quinazolin-4-yl]amino}methyl)phenyl]benzamide], the IC50 is greater than 6020 nM.

Turning to `CNc1nc(NCc2ccc(NC(=O)COCc3ccccc3)cc2)c2ccccc2n1` [Example 2, 2-(benzyloxy)-N-[4-({[2-(methylamino)quinazolin-4-yl]amino}methyl)phenyl]acetamide], the IC50 was greater than 2920 nM.

The next assay relates to SV40-Luc. Put plainly: SV40-Luc control luciferase reporter assay, SV 5A8 cell line (SV40-Luc and SV40-R-Luc), control for non-specific inhibitors. Type of assay: cell-based, human. The conditions noted are these: Homo sapiens, SV5A8, 24 h, SV 5A8 cells derived from SW480; 24 hours of incubation with compound; ratio Firefly/Renilla luciferase.
Text: Background cell line: SW480 colorectal carcinoma DNA constructs: […]
as §1, §2
This screen uses 3 cell lines derived from SW480 and selected to contain the above luciferase reporters integrated into their chromosomes as follows:
SV 5A8—SV40-Luc and SV40-R-Luc
as §3
Compounds: 20-24 hours after cell plating, compounds were added at titrated concentrations between […]. The compounds were diluted as follows: The compounds were stored frozen in dimethyl sulfoxide (DMSO) at […]. Compounds were initially titrated in DMSO to make a 1000×DMSO stock solution. Compounds were then diluted 1:25 into media/DMSO (DMEM+10% FBS+9% DMSO). Using the Biomek Multimek, the diluted compounds were mixed well and immediately added to the plated cells in a 1:40 dilution. The final concentration of DMSO in the assay plates was 0.316% DMSO.
as §4
Promega's Dual-Glo™ Luciferase Assay System can be used for luciferase detection. It was similar to the DLR Assay, however, unlike the DLR which has to be read immediately due to decaying signal, the signal in the Dual-Glo™ Luciferase Assay was stable for up to 2 hours. Briefly, after 24 hours of incubation with compound, culture media was removed by aspiration and 75 ul of fresh medium was added. Add 75 ul of Dual-Glo Luciferase Reagent (Promega) to each well and mix by shaking for 10 minutes on a plate shaker. Then, measure the firefly luminescence on a CCD camera imaging device or a luminometer. After quantifying the firefly luminescence, add 75 ul of Dual-Glo Stop & Glo Reagent (Promega) to each well and mix for 10 minutes. Renilla luciferase was then quantified using the CCD camera or luminometer.
as §5, §6
As for `CNc1nc(NCc2ccc(NC(=O)c3ccc(F)cc3)cc2)c2cccc(C)c2n1` [Example 190, 4-fluoro-N-[4-({[8-methyl-2-(methylamino)quinazolin-4-yl]amino}methyl)phenyl]benzamide], the IC50 is greater than 3010 nM.

On to `CN(C)c1nc(NCc2ccc(NC(=O)c3ccc(F)cc3)cc2)c2ccc(CO)cc2n1` [Example 93, N-[4-({[2-(dimethylamino)-7-(hydroxymethyl)quinazolin-4-yl]amino}methyl)phenyl]-4-fluorobenzamide], for which the IC50 is greater than 10400 nM.

With `Cc1ccc2c(NCc3ccc(NC(=O)c4ccc(F)cc4)cc3)nc(N(C)C)nc2c1` [Example 199, N-[4-({[2-(dimethylamino)-7-methylquinazolin-4-yl]amino}methyl)phenyl]-4-fluorobenzamide], the IC50 is greater than 2910 nM.

As for `CNc1nc(NCc2ccc(NC(=O)c3ccc(Cl)cc3)cc2)c2ccccc2n1` [Example 10, 4-chloro-N-[4-({[2-(methylamino)quinazolin-4-yl]amino}methyl)phenyl]benzamide], the IC50 was 2190 nM.

For the compound `CNc1nc(NCc2ccc(NC(=O)c3ccc(Cl)cc3)cc2)c2cc(C)ccc2n1` [Example 18, 4-chloro-N-[4-({[6-methyl-2-(methylamino)quinazolin-4-yl]amino}methyl)phenyl]benzamide], the IC50 was greater than 5790 nM.

Regarding `CNc1nc(NCc2ccc(NC(=O)c3ccc(C)cc3)cc2)c2ccccc2n1` [Example 12, 4-methyl-N-[4-({[2-(methylamino)quinazolin-4-yl]amino}methyl)phenyl]benzamide], the IC50 is greater than 25200 nM.

As to `CNc1nc(NCc2ccc(NC(=O)c3ccc(F)cc3)cc2)c2c(C)cccc2n1` [Example 192, 4-fluoro-N-[4-({[5-methyl-2-(methylamino)quinazolin-4-yl]amino}methyl)phenyl]benzamide], the IC50 is greater than 3010 nM.

As to `CNc1nc(NCc2ccc(NC(=O)c3ccc(F)cc3)cc2)c2cc(C)ccc2n1` [Example 24, 4-fluoro-N-[4-({[6-methyl-2-(methylamino)quinazolin-4-yl]amino}methyl)phenyl]benzamide], the IC50 is greater than 602 nM.

As to `CNc1nc(NCc2ccc(NC(=O)c3ccc(Cl)nc3)cc2)c2ccc(C)cc2n1` [Example 264, 6-chloro-N-[4-({[7-methyl-2-(methylamino)quinazolin-4-yl]amino}methyl)phenyl]nicotinamide], the IC50 was greater than 1440 nM.

As for `CNc1nc(NCc2ccc(NC(=O)c3ccc(C(F)(F)F)cc3)cc2)c2ccccc2n1` [Example 20, N-[4-({[2-(methylamino)quinazolin-4-yl]amino}methyl)phenyl]-4-(trifluoromethyl)benzamide], the IC50 was greater than 1380 nM.

On to `Cc1ccc2c(NCc3ccc(NC(=O)c4ccc(F)cc4)cc3)nc(N3CCC3)nc2c1` [Example 202, N-(4-{[(2-azetidin-1-yl-7-methylquinazolin-4-yl)amino]methyl}phenyl)-4-fluorobenzamide], for which the IC50 is greater than 2830 nM.

Turning to `Cc1ccc2c(NCc3ccc(NC(=O)c4ccc(F)cc4)cc3)nc(N3CCNCC3)nc2c1` [Example 208, 4-fluoro-N-(4-{[(7-methyl-2-piperazin-1-ylquinazolin-4-yl)amino]methyl}phenyl)benzamide], the IC50 is greater than 2660 nM.

For the compound `CNc1nc(NCc2ccc(NC(=O)c3cccc(Cl)c3)cc2)c2ccccc2n1` [Example 11, 3-chloro-N-[4-({[2-(methylamino)quinazolin-4-yl]amino}methyl)phenyl]benzamide], the IC50 is greater than 5980 nM.

Take `CNc1nc(NCc2ccc(NC(=O)c3ccc(C#N)cc3)cc2)c2ccccc2n1` [Example 21, 4-cyano-N-[4-({[2-(methylamino)quinazolin-4-yl]amino}methyl)phenyl]benzamide]: the IC50 is greater than 12200 nM.

As to `CNc1nc(NCc2ccc(NC(=O)c3ccc(-c4ccccc4)cc3)cc2)c2ccccc2n1` [Example 15, N-[4-({[2-(methylamino)quinazolin-4-yl]amino}methyl)phenyl]biphenyl-4-carboxamide], the IC50 was greater than 5440 nM.

Take `CN(C)Cc1ccc2c(NCc3ccc(NC(=O)c4ccc(F)cc4)cc3)nc(N(C)C)nc2c1` [Example 91, N-{4-[({2-(dimethylamino)-7-[(dimethylamino)methyl]quinazolin-4-yl}amino)methyl]phenyl}-4-fluorobenzamide]: the IC50 was greater than 9170 nM.

As for `CNc1nc(NCc2ccc(NC(=O)c3ccc(F)cc3)cc2)c2ccc(C)cc2n1` [Example 230, 4-fluoro-N-[4-({[7-methyl-2-(methylamino)quinazolin-4-yl]amino}methyl)phenyl]benzamide], the IC50 is greater than 752 nM.

On to `Cc1ccc2c(NCc3ccc(NC(=O)c4ccc(F)cc4)cc3)nc(N3CCCCC3)nc2c1` [Example 206, 4-fluoro-N-(4-{[(7-methyl-2-piperidin-1-ylquinazolin-4-yl)amino]methyl}phenyl)benzamide], for which the IC50 was greater than 2660 nM.

On to `CNc1nc(NCc2ccc(NC(=O)c3ccc(Cl)cc3)cc2)c2cccc(C)c2n1` [Example 191, 4-chloro-N-[4-({[8-methyl-2-(methylamino)quinazolin-4-yl]amino}methyl)phenyl]benzamide], for which the IC50 was greater than 1450 nM.

For the compound `C=Cc1ccc2c(NCc3ccc(NC(=O)c4ccc(F)cc4)cc3)nc(N(C)C)nc2c1` [Example 87, N-[4-({[2-(dimethylamino)-7-vinylquinazolin-4-yl]amino}methyl)phenyl]-4-fluorobenzamide], the IC50 is greater than 20900 nM.

On to `CCc1ccc2c(NCc3ccc(NC(=O)c4ccc(F)cc4)cc3)nc(N(C)C)nc2c1` [Example 88, N-[4-({[2-(dimethylamino)-7-ethylquinazolin-4-yl]amino}methyl)phenyl]-4-fluorobenzamide], for which the IC50 is greater than 2600 nM.

Turning to `CNc1nc(NCc2ccc(NC(=O)c3ccc(F)cc3)cc2)c2ccccc2n1` [Example 13, 4-fluoro-N-[4-({[2-(methylamino)quinazolin-4-yl]amino}methyl)phenyl]benzamide], the IC50 is greater than 778 nM.
